± gives the standard deviation of the averaged measurements.
Key:
Assay in all cases: relative viability vs DMSO control (72 h) (fraction); higher = more viable cells
[1] = test system: HT1080
Outline: (§1)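 Sarcoma cell lines in 384-well plates, seeded to reach 80–90% confluence, were given compound after 24 h and kept 72 h at 37 °C, 5% CO2, with 0.1% DMSO vehicle and a 5 µM positive control. Relative viability came from ATPLite as percent growth, averaged over up to triplicate wells. On the rescaled values, 1 equals full and 0 equals none.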

[2] = test system: RD-ES
Outline: as §1

[3] = test system: KHOS-NP
Outline: as §1

[4] = test system: SW684
Outline: as §1

[5] = test system: SYO-1
Outline: as §1

C[C@@H]1COC(Nc2ccc3ncnc(Nc4ccc(OCc5nccs5)c(Cl)c4)c3c2)=N1 [Varlitinib]
relative viability
Conditions | [1] | [2] | [3] | [4] | [5]
0.00017 µM | 1.06 ± 0.049 | 0.968 ± 0.035 | 1.03 ± 0.017 | 1.01 ± 0.016 | 1.04 ± 0.032
0.00051 µM | 1.03 ± 0.028 | 1.01 ± 0.03 | 1.05 ± 0.025 | 1.09 ± 0.074 | 1.04 ± 0.038
0.00152 µM | 1.05 ± 0.019 | 0.957 ± 0.011 | 1.06 ± 0.015 | 1.07 ± 0.045 | 1.03 ± 0.045
0.00457 µM | 1.05 ± 0.04 | 0.985 ± 0.021 | 1.05 ± 0.022 | 1.08 ± 0.042 | 1.03 ± 0.048
0.01372 µM | 1.04 ± 0.043 | 0.975 ± 0.0098 | 1.06 ± 0.012 | 1.08 ± 0.04 | 1.02 ± 0.062
0.04115 µM | 1.06 ± 0.027 | 0.991 ± 0.021 | 1.05 ± 0.02 | 1.08 ± 0.055 | 1.03 ± 0.021
0.1235 µM | 1 ± 0.034 | 1 ± 0.015 | 1.07 ± 0.012 | 1.063 ± 0.003 | 1.02 ± 0.049
0.3704 µM | 1.01 ± 0.015 | 0.948 ± 0.03 | 1.06 ± 0.013 | 1.08 ± 0.043 | 1.02 ± 0.031
1.111 µM | 1.02 ± 0.026 | 0.961 ± 0.022 | 1.04 ± 0.019 | 1.06 ± 0.061 | 1.01 ± 0.022
3.333 µM | 0.99 ± 0.033 | 0.973 ± 0.064 | 1.04 ± 0.031 | 1.03 ± 0.028 | 0.941 ± 0.018
10 µM | 0.97 ± 0.034 | 0.89 ± 0.037 | 0.94 ± 0.063 | 1.03 ± 0.034 | 0.55 ± 0.041

CC[C@@H]1C(=O)N(C)c2cnc(Nc3ccc(C(=O)N[C@H]4CC[C@H](N5CCN(CC6CC6)CC5)CC4)cc3OC)nc2N1C(C)C [Volasertib]
relative viability
Conditions | [1] | [2] | [3] | [4] | [5]
0.00017 µM | 1.057 ± 0.0099 | 1.02 ± 0.029 | 1.07 ± 0.033 | 1.19 ± 0.079 | 0.966 ± 0.037
0.00051 µM | 1.06 ± 0.03 | 1 ± 0.034 | 1.06 ± 0.022 | 1.21 ± 0.013 | 0.974 ± 0.068
0.00152 µM | 1.06 ± 0.018 | 1.01 ± 0.032 | 1.07 ± 0.02 | 1.22 ± 0.061 | 0.958 ± 0.038
0.00457 µM | 1.04 ± 0.014 | 1.028 ± 0.0036 | 1.08 ± 0.026 | 1.17 ± 0.06 | 0.912 ± 0.018
0.01372 µM | 1.03 ± 0.048 | 0.987 ± 0.012 | 1.09 ± 0.016 | 1.13 ± 0.023 | 0.549 ± 0.086
0.04115 µM | 0.9978 ± 0.0032 | 0.447 ± 0.015 | 1.01 ± 0.027 | 0.694 ± 0.016 | 0.352 ± 0.019
0.1235 µM | 0.239 ± 0.0043 | 0.0248 ± 0.0011 | 0.471 ± 0.019 | 0.675 ± 0.027 | 0.311 ± 0.053
0.3704 µM | 0.13 ± 0.0017 | 0.0217 ± 0.0023 | 0.276 ± 0.0091 | 0.731 ± 0.021 | 0.131 ± 0.0098
1.111 µM | 0.139 ± 0.0069 | 0.0279 ± 0.0027 | 0.222 ± 0.0049 | 0.675 ± 0.039 | 0.00893 ± 0.0079
3.333 µM | 0.0909 ± 0.012 | 0.0346 ± 0.00095 | 0.184 ± 0.046 | 0.6025 ± 0.0023 | -0.0446 ± 0.0066
10 µM | 0.00783 ± 0.00095 | 0.0126 ± 0.00032 | 0.0214 ± 0.00017 | 0.0835 ± 0.0075 | -0.0423 ± 0.0069

— the supplement of paper PMC10883282
